Data taken from patent US10512627B2, “Anti-tumor compound and the medical use thereof” (Tianjin Medical University Cancer Institute and Hospital, priority 2014, dated 2019).

Assays:
Lewis lung cancer cells = assay: Lewis lung cancer metastasis model in mice (Example 8); format: in vivo, C57BL/6 mouse; conditions: 50, 25, 5 mg/kg intragastric, twice a day, 21 days; P<0.01
Method: 5) A lung cancer model of mouse is established by subcutaneous inoculation of Lewis lung cancer cells in C57BL/6 mouse, because of the characteristic of Lewis lung cancer cell of specific metastasis toward the lung, and the ability of a drug for inhibiting the metastasis of the tumor cells may be determined by counting the number of the metastatic tumors on lung.
The ability of (S)2-(4′-methyl-3′-nitrobenzoylamino)-3-phenylpropionic acid for inhibiting tumor metastasis in vivo was tested by Lewis lung cancer metastasis model in mice.
1) Mice grouping, C57BL/6 of SPF grade, 5 weeks old, 18˜22 g, 8 mice for each group. half male and half female;
2) The mother liquid of (S)2-(4′-methyl-3′-nitrobenzoylamino)-3-phenylpropionic acid for dosage form for oral administration was diluted with 1.5% CMC-Na solution to 5 mg/mL, 2.5 mg/mL, 0.5 mg/mL. The dosage for administration in mice was as follows, high dosage group of 50 mg/kg; Medium dosage group of 25 mg/kg; low dosage group of 5 mg/kg. The negative control was 1.5% CMC-Na solution; The positive control was 10 mg/mL of dosage form of 4-methyl-3-nitrobenzoic acid for oral administration, with dosage for administration of 100 mg/kg; […]
5) After the completion of the experiment, the mice were sacrificed and the lungs were made into paraffin tissue sections, then stained by HE and the number of tumors were counted under microscope;

[1] = test system: human breast cancer cell MDA-MB-231; assay: Scratch assay, migration of MDA-MB-231 (Example 3); format: cell-based; conditions: 0.5, 1, 2, 4 μmol/L, 0-24 h
Method: The inhibiting ability of (S)2-(4′-methyl-3′-nitrobenzoylamino)-3-phenylpropionic acid for the migration of human breast cancer cell MDA-MB-231 was tested by scratch assay.
The MDA-MB-231 cells in logarithmic growth phase were plated in the 6-well plate with the density of 1×10^6/3 mL, and the drug was added after 12 h, with 100 μL per well. The final concentrations of (S)2-(4′-methyl-3′-nitrobenzoylamino)-3-phenylpropionic acid (TCI04) were 0.5, 1, 2, and 4 μmol/L, respectively. The negative control was 100 μL sterilized water with 2% DMSO and the positive control was 1 μmol/L 4-methyl-3-nitrobenzoic acid (TCI01). After 12 h, the culture medium was removed, and the plate was washed 3 times with PBS, and 3 ml culture medium without fetal bovine serum and 100 μL drug (concentration was the same as above) per well were added. 12 h later, 10 μL tips were used to scratch, and after washing 4 times with PBS, 3 ml culture medium without fetal bovine serum per well was added. The distance of cell migration was recorded every 3 h under the inverted microscope, and the photos were taken at 0 h and 24 h.

MDA-MB-231 cells = assay: MTT assay, synergistic effect with Paclitaxel (Example 12); format: cell-based, human; conditions: 20 μM, 24 or 48 h
Method: Synergistic effects of (S)2-(4′-methyl-3′-nitrobenzoylamino)-3-phenylpropionic acid and Paclitaxel was tested by MTT assay.
1) The MDA-MB-231 cells in logarithmic growth phase were seeded in the 96-well plate at a density of 4×10^3/0.2 ml. After culturing for 12 h, 10 μl Paclitaxel solution was added, with the final concentration of 0, 0.001, 0.01, 0.1, 1, 10, 50, 100, 200 μM, then 10 μL (S)2-(4′-methyl-3′-nitrobenzoylamino)-3-phenylpropionic acid PBS solution was add to half of the wells for each group with the final concentration of 20 μM, followed by continuous culturing for 24 or 48 h.
2) 5 mg/mL MTT solution was prepared with sterilized PBS, filtered with 0.22 μm film, and diluted with medium to 1 mg/mL. After discarding the medium in the 96-well plate, 100 μL 1 mg/mL MTT working solution was added, followed by continuous culturing for 5 h.
3) MTT working solution was discarded, and 150 μL DMSO was added per well (note: to away from light). The plate was shaken on a horizontal shaker at 170 rpm for 10 min, and then the absorbance at 490 nm was detected by microplate reader.

[2] = Mice acute toxicity assay, intravenous administration (Example 9); conditions: both sexes, Kunming, mouse, in vivo, Bliss algorithm
Method: The median lethal dose of (S)2-(4′-methyl-3′-nitrobenzoylamino)-3-phenylpropionic acid via intravenous administration was tested by mice acute toxicity assay.
1) Mice grouping, Kunming mice of clean grade, 10 weeks old, 30˜40 g body weight, 10 mice for each group, half male and half female.
2) 10 groups in total, concentration distance between groups was 0.88. Sterilized water was added to the mother liquid II for dosage form administrated by intravenous injection to formulate into the required concentration and 0.2 ml was intravenously injected for each mouse, following 14 days observation. The dosage of administration for each group and the death numbers were recorded as follows: […]

Kunming mice = assay: Acute toxicity assay in mice, oral administration (Example 10); conditions: Kunming, mouse, in vivo, 14 days
Method: (§1) The medium lethal dose of (S)2-(4′-methyl-3′-nitrobenzoylamino)-3-phenylpropionic acid via oral administration was tested by acute toxicity assay in mice.
(§2) 1) Mice grouping: Kunming mice of clean grade, 10 weeks old, 30˜40 g body weight, 5 mice for each group, and all of the mice were males or females.
(§3) 2) 3.2 g (S)2-(4′-methyl-3′-nitrobenzoylamino)-3-phenylpropionic acid was added to 8 mL solution of 3% sodium carboxymethylcellulose solution, and the mixture was homogenated for 5 min at 30000 rpm with a homogenizer. Each mouse undergone administration of intragastric infusion with 0.5 ml at a dosage of 5000 mg/kg. […] If the death number was […], the LD50 was regarded as more than 5000 mg/kg; if the death number equals to or was more than 3, the main experiments will be performed. The experiment was repeated for 3 times and the result was recorded as follows: […]

[3] = as above; conditions: both sexes, mouse, in vivo, 5000 mg/kg; oral administration, Kunming mice
Method: as §1, §2, §3

## Cc1ccc(C(=O)N[C@@H](Cc2ccccc2)C(=O)O)cc1[N+](=O)[O-] [(S)2-(4′-methyl-3′-nitrobenzoylamino)-3-phenylpropionic acid]
Lewis lung cancer cells
  number of the tumors on the lungs compared with the negative control: very significant difference
[1]
  inhibition of migration ability (coalescence speed of cell scratch vs negative control): significantly inhibited
MDA-MB-231 cells
  synergistic effect with Paclitaxel: strong synergistic effect
[2]; read-out: LD50
  LD50 at 14 days: 269 mg/kg
[2]; read-out: LD50 95% confidence limits
  LD50 at 14 days: 249 to 291 mg/kg
Kunming mice; female
  Death number, Female mice, The first test: 2
  Death number, Female mice, The second test: 2
  Death number, Female mice, The third test: 1
Kunming mice; male
  Death number, Male mice, The first test: 2
  Death number, Male mice, The second test: 1
  Death number, Male mice, The third test: 1
[3]
  LD50 at 14 days: > 5000 mg/kg
